Results as given in publication PMC9516332 (Frontiers in Oncology, 2022).
Where two headings read alike, the source gives them in different places.

Tests used:
[1] = target: T1, panel of 255 wild-type kinases (Homo sapiens, UniProt Q9BZL6); experiment: Kinase panel profiling at 1 µmol/L (MSA or IMAP), percentage inhibition; type: biochemical; conditions: kinase PKD2; 1 µmol/L single concentration; read-out: %-inhibition at 1 µmol/L, PKD2
T1 sequence (Q9BZL6 1-878): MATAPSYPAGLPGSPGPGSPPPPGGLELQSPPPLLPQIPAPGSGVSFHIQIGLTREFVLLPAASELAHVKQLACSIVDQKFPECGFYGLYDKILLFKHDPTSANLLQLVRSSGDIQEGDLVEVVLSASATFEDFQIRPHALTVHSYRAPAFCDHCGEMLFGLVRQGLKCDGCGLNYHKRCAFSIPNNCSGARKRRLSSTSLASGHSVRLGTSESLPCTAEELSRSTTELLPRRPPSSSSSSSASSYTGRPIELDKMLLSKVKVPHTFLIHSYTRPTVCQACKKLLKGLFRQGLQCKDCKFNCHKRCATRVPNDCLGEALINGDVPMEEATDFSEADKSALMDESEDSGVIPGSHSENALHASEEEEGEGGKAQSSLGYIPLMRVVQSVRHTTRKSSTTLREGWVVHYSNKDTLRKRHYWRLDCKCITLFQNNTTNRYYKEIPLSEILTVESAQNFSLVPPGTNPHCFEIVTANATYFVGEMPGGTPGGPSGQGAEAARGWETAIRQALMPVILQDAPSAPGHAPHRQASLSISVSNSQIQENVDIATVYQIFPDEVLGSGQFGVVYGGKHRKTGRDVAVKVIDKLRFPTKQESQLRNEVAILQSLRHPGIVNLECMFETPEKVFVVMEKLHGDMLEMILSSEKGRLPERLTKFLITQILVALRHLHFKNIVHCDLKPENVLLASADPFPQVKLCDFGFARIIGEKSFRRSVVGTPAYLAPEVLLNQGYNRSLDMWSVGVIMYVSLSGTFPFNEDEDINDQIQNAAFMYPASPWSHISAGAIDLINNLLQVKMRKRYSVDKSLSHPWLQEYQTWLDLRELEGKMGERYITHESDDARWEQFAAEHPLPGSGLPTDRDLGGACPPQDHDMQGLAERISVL

AP-1060 (ETV6-NTRK3) = experiment: Cell viability assay; conditions: read-out: IC50 in cell proliferation assay
134 cancer cell lines = experiment: Cell viability assay (ATPlite, 72 hours), IC50 on cancer cell line panel

SMILES: COc1cc2ncnc(Nc3ccc(F)c(Cl)c3)c2cc1NC(=O)/C=C/CN1CCCCC1 [dacomitinib]
- inhibition at 1 µM [1]: 10%
- IC50 (AP-1060 (ETV6-NTRK3)): 3.46 µM
- lower IC50 of the most sensitive cell line compared to the panel average (134 cancer cell lines; 134 cell line panel): more than 1000 fold
- IC50 (134 cancer cell lines; HEC-6, read-out: IC50 in cell proliferation assay, HEC-6 cell line (EGFR p.A289V)): 2.51 µM
- IC50 (134 cancer cell lines; Homo sapiens, 769-P, read-out: IC50 in cell proliferation assay, cell line 769-P): 0.032 µM
- IC50 (134 cancer cell lines; Homo sapiens, 786-0, read-out: IC50 in cell proliferation assay, cell line 786-O): 3.04 µM
- IC50 (134 cancer cell lines; Homo sapiens, A 172, read-out: IC50 in cell proliferation assay, cell line A-172): 3.62 µM
- IC50 (134 cancer cell lines; Homo sapiens, A204, read-out: IC50 in cell proliferation assay, cell line A-204): 2.51 µM
- IC50 (134 cancer cell lines; Homo sapiens, A498, read-out: IC50 in cell proliferation assay, cell line A-498): 2.57 µM
- IC50 (134 cancer cell lines; Homo sapiens, A549, read-out: IC50 in cell proliferation assay, cell line A-549): 6.63 µM
- IC50 (134 cancer cell lines; Homo sapiens, A704, read-out: IC50 in cell proliferation assay, cell line A-704): 3.91 µM
- IC50 (134 cancer cell lines; Homo sapiens, A-375, read-out: IC50 in cell proliferation assay, cell line A-375 (BRAF p.V600E)): 3.46 µM
- IC50 (134 cancer cell lines; Homo sapiens, A-427, read-out: IC50 in cell proliferation assay, cell line A-427): 2.89 µM
- IC50 (134 cancer cell lines; Homo sapiens, ACHN, read-out: IC50 in cell proliferation assay, cell line ACHN): 0.011 µM
- IC50 (134 cancer cell lines; Homo sapiens, AN3-CA, read-out: IC50 in cell proliferation assay, cell line AN3-CA (FGFR2 p.N549K)): 3.75 µM
- IC50 (134 cancer cell lines; Homo sapiens, ASPC1, read-out: IC50 in cell proliferation assay, cell line AsPC-1): 5.82 µM
- IC50 (134 cancer cell lines; Homo sapiens, AU565, read-out: IC50 in cell proliferation assay, cell line AU565 (ERBB2 amplification)): 0.068 µM
- IC50 (134 cancer cell lines; Homo sapiens, BT-20, read-out: IC50 in cell proliferation assay, cell line BT-20): 5.62 µM
- IC50 (134 cancer cell lines; Homo sapiens, BT-474, read-out: IC50 in cell proliferation assay, cell line BT-474 (ERBB2 amplification)): 0.037 µM
- IC50 (134 cancer cell lines; Homo sapiens, BT-549, read-out: IC50 in cell proliferation assay, cell line BT-549): 3.68 µM
- IC50 (134 cancer cell lines; Homo sapiens, BXPC-3, read-out: IC50 in cell proliferation assay, cell line BxPC-3): 4.06 µM
- IC50 (134 cancer cell lines; Homo sapiens, C-33-A, read-out: IC50 in cell proliferation assay, cell line C-33 A): 0.04 µM
- IC50 (134 cancer cell lines; Homo sapiens, CAL-27, read-out: IC50 in cell proliferation assay, cell line CAL-27): 0.011 µM
- IC50 (134 cancer cell lines; Homo sapiens, CCF-STTG1, read-out: IC50 in cell proliferation assay, cell line CCF-STTG1): 5.61 µM
- IC50 (134 cancer cell lines; Homo sapiens, CCRF-CEM, read-out: IC50 in cell proliferation assay, cell line CCRF-CEM): 3.27 µM
- IC50 (134 cancer cell lines; Homo sapiens, COLO 205, read-out: IC50 in cell proliferation assay, cell line COLO 205 (BRAF p.V600E)): 4.28 µM
- IC50 (134 cancer cell lines; Homo sapiens, COLO-829, read-out: IC50 in cell proliferation assay, cell line COLO 829 (BRAF p.V600E)): 6.02 µM
- IC50 (134 cancer cell lines; Homo sapiens, DLD-1, read-out: IC50 in cell proliferation assay, cell line DLD-1): 3.24 µM
- IC50 (134 cancer cell lines; Homo sapiens, DU-4475, read-out: IC50 in cell proliferation assay, cell line DU4475 (BRAF p.V600E)): 5.24 µM
- IC50 (134 cancer cell lines; Homo sapiens, Daoy, read-out: IC50 in cell proliferation assay, cell line Daoy): 3.77 µM
- IC50 (134 cancer cell lines; Homo sapiens, DoTc2-4510, read-out: IC50 in cell proliferation assay, cell line DoTc2 4510): 0.012 µM
- IC50 (134 cancer cell lines; Homo sapiens, EOL1, read-out: IC50 in cell proliferation assay, cell line EoL-1 (FIP1L1-PDGFRA)): 0.72 µM
- IC50 (134 cancer cell lines; Homo sapiens, FaDu, read-out: IC50 in cell proliferation assay, cell line FaDu): 0.013 µM
- IC50 (134 cancer cell lines; Homo sapiens, G-361, read-out: IC50 in cell proliferation assay, cell line G-361 (BRAF p.V600E)): 4.11 µM
- IC50 (134 cancer cell lines; Homo sapiens, HCC827, read-out: IC50 in cell proliferation assay, cell line HCC827 (EGFR exon19del)): 0.00113 µM
- IC50 (134 cancer cell lines; Homo sapiens, HCC4006, read-out: IC50 in cell proliferation assay, cell line HCC4006 (EGFR exon19del)): 0.00119 µM
- IC50 (134 cancer cell lines; Homo sapiens, HCT-15, read-out: IC50 in cell proliferation assay, cell line HCT 15): 3.45 µM
- IC50 (134 cancer cell lines; Homo sapiens, HCT-116, read-out: IC50 in cell proliferation assay, cell line HCT 116): 2.3 µM
- IC50 (134 cancer cell lines; Homo sapiens, HEC-1, read-out: IC50 in cell proliferation assay, HEC-1 cell line): 1.91 µM
- IC50 (134 cancer cell lines; Homo sapiens, HEC-1B, read-out: IC50 in cell proliferation assay, HEC-1-B cell line (EGFR p.A864V)): 0.014 µM
- IC50 (134 cancer cell lines; Homo sapiens, HL-60, read-out: IC50 in cell proliferation assay, HL-60 cell line): 1.74 µM
- IC50 (134 cancer cell lines; Homo sapiens, HT, read-out: IC50 in cell proliferation assay, HT cell line): 3.76 µM
- IC50 (134 cancer cell lines; Homo sapiens, HT-1080, read-out: IC50 in cell proliferation assay, HT-1080 cell line): 2.79 µM
- IC50 (134 cancer cell lines; Homo sapiens, Hs746T, read-out: IC50 in cell proliferation assay, Hs 746.T cell line (MET exon14skip + amplification)): 3.12 µM
- IC50 (134 cancer cell lines; Homo sapiens, Hs-578T, read-out: IC50 in cell proliferation assay, Hs 578T cell line): 3.09 µM
- IC50 (134 cancer cell lines; Homo sapiens, HuTu80, read-out: IC50 in cell proliferation assay, HuTu 80 cell line): 4.06 µM
- IC50 (134 cancer cell lines; Homo sapiens, J82, read-out: IC50 in cell proliferation assay, J82 cell line): 3.95 µM
- IC50 (134 cancer cell lines; Homo sapiens, Jurkat E6.1, read-out: IC50 in cell proliferation assay, Jurkat E6.1 cell line): 3.18 µM
- IC50 (134 cancer cell lines; Homo sapiens, K562, read-out: IC50 in cell proliferation assay, K-562 cell line): 3.44 µM
- IC50 (134 cancer cell lines; Homo sapiens, KATO III, read-out: IC50 in cell proliferation assay, KATO III cell line (FGFR2 amplification)): 2.96 µM
- IC50 (134 cancer cell lines; Homo sapiens, KG-1, read-out: IC50 in cell proliferation assay, KG-1 cell line (FGFR1OP2-FGFR1)): 2.57 µM
- IC50 (134 cancer cell lines; Homo sapiens, KLE, read-out: IC50 in cell proliferation assay, KLE cell line): 3.44 µM
- IC50 (134 cancer cell lines; Homo sapiens, KMS-11, read-out: IC50 in cell proliferation assay, KMS-11 cell line (FGFR3 p.Y373C)): 3.54 µM
- IC50 (134 cancer cell lines; Homo sapiens, KU812, read-out: IC50 in cell proliferation assay, Ku812 cell line): 3.2 µM
- IC50 (134 cancer cell lines; Homo sapiens, Kasumi 1, read-out: IC50 in cell proliferation assay, Kasumi-1 cell line (KIT p.N822K)): 1.63 µM
- IC50 (134 cancer cell lines; Homo sapiens, LC-2-ad, read-out: IC50 in cell proliferation assay, LC-2/ad cell line (CCDC6-RET)): 2.89 µM
- IC50 (134 cancer cell lines; Homo sapiens, LNCaP-Clone-FGC, read-out: IC50 in cell proliferation assay, LNCaP clone FGC cell line): 7.97 µM
- IC50 (134 cancer cell lines; Homo sapiens, LS174T, read-out: IC50 in cell proliferation assay, LS174T cell line): 2.67 µM
- IC50 (134 cancer cell lines; Homo sapiens, LS-411N, read-out: IC50 in cell proliferation assay, LS411N cell line (BRAF p.V600E)): 4.24 µM
- IC50 (134 cancer cell lines; Homo sapiens, LoVo, read-out: IC50 in cell proliferation assay, LoVo cell line): 4.3 µM
- IC50 (134 cancer cell lines; Homo sapiens, MCF7, read-out: IC50 in cell proliferation assay, MCF-7 cell line): 12.9 µM
- IC50 (134 cancer cell lines; Homo sapiens, MDA-MB-231, read-out: IC50 in cell proliferation assay, MDA-MB-231 cell line): 3.69 µM
- IC50 (134 cancer cell lines; Homo sapiens, MDA-MB-453, read-out: IC50 in cell proliferation assay, MDA-MB-453 cell line): 3.25 µM
- IC50 (134 cancer cell lines; Homo sapiens, MDA-MB-468, read-out: IC50 in cell proliferation assay, MDA-MB-468 cell line): 0.033 µM
- IC50 (134 cancer cell lines; Homo sapiens, MG-63, read-out: IC50 in cell proliferation assay, MG-63 cell line): 4 µM
- IC50 (134 cancer cell lines; Homo sapiens, MIA PaCa-2, read-out: IC50 in cell proliferation assay, MIA PaCa-2 cell line): 3.93 µM
- IC50 (134 cancer cell lines; Homo sapiens, MKN-45, read-out: IC50 in cell proliferation assay, MKN45 cell line (MET amplification)): 4.25 µM
